Test results as given in patent US7053177B1, “Random peptides that bind to gastro-intestinal tract (GIT) transport receptors and related methods” (Cytogen Corporation, priority 1997, dated 2006).
Ends that are not written are not given here. * marks the point of attachment. Dansyl = CN(C)c1cccc2c(S(=O)(=O)*)cccc12

What was measured:
fixed Caco-2 cells [1] = experiment: Effect of thrombin cleavage on binding of GST-peptide fusions to fixed Caco-2 cells; settings: in words
Procedure: Binding of intact and thrombin-cleaved GST-peptide fusions to fixed Caco-2 cells was compared.
Thirty micrograms of each GST-peptide was treated with bovine thrombin (1 μ/ml; 0.4 NIH units; Sigma CN.T9681) for 18h at room temperature in 20 mM Tris-HCl pH8.0, 150 mM NaCl, 2.5 mM CaCl2. Controls were similarly treated without addition of thrombin. Ten micrograms of each GST-peptide fusion was removed for PAGE analysis, and 10 μg of fusions were added in duplicate to the fixed Caco-2 cells before 5-fold serial dilutions (1% BPT diluent). The fusions were allowed to bind for 1h at room temperature. Following 6 washes with 1% BPT, binding was assayed by ELISA.

[2] = test system: P100 membrane fraction of Caco-2 cells; experiment: GST-PAX2 peptides: relative binding to P100 fractions (ratio to GST-HAX42); settings: GST-peptide 20 μg/ml; binding to plastic subtracted; GST-HAX42 = 1.00
Procedure: The peptides and proteins were analyzed by a dansylated peptide ELISA method in which 96 well plates were coated overnight at 4° C. with 100 μl/well coating protein (normally 100 μg/ml P100 membrane fraction) in 0.05M carbonate buffer pH9.6. Nonspecific binding was blocked using 200 μl/well, 2% Marvel/PBS for 2 hours at 37° C. prior to incubation with dansylated peptides. The plates were washed three times with PBS/0.05% Tween 20 and after each subsequent incubation step. […] A buffer blank control was included to ensure that background binding to plastic was not due to the antibodies used in the assay system. […] The plates were then incubated with an anti-mouse λ-HRP conjugated antibody (Southern Biotech 1060-05) at a 1:10,000 dilution in blocking solution, 100 μl/well for 1 hour at room temperature. Plates were developed using 75 μl/well Bionostics TMB substrate and incubated for approximately 10 minutes. The developing reaction was stopped using Bionostics Red Stop solution (25 μl/well), and the optical density of the plates was read at 650 nm.
After subtraction of the GST-peptide binding to plastic from P100 binding values, the binding of GST-PAX2 peptides were represented as a ratio of GST-HAX42 binding to P100, which was given the arbitrary value of 1.00. The following ratios were determined from binding to P100 of GST-peptides at a peptide concentration of 20 μg/ml. […]

fixed Caco-2 cells [3] = experiment: Competition ELISA: synthetic peptides versus GST-peptide fusions on fixed Caco-2 cells; settings: peptide from 100 μg/ml serially diluted; GST fusion 10 μg
Procedure: Caco-2 cells were fixed, treated with phenylhydrazin and blocked as described above. Synthetic peptides (100 μg/ml) were applied in duplicate to Caco-2 cells and serially diluted down the 96-well plate. The corresponding GST-peptide fusion protein (10 μg) was added to each well and the plates were incubated for 2h at room temperature with agitation. Binding of the GST-peptide fusion proteins to the cells was assayed using the ELISA technique described above.

[4] = test system: P100 membrane fraction of Caco-2 cells; experiment: Binding of dansylated peptides to P100 fractions (peptide/particle correlation); settings: compared with scrambled PAX2 control
Procedure: Caco-2 cell membrane (P100) and cytosolic (S100) fractions were prepared using a modification of the method described in Kinsella, B. T., O'Mahony, D. J. and G. A. FitzGerald, 1994, J. Biol. Chem. 269(47): 29914–29919. Confluent Caco-2 cell monolayers (grown in 75 cm^2 flasks for up to 1 week at 37° C. and 5% CO2) were washed twice in Dulbecco's PBS (DPBS) and the cells were harvested by centrifugation at 1000 rpm after treatment with 10 mM EDTA-DPBS. The cells were washed 3 times in DPBS and the final cell pellet was resuspended in 3 volumes of ice cold HED buffer (20 mM HEPES (pH 7.67), 1 mM EGTA, 0.5 mM dithiothreitol, 1 mM phenylmethylsulphonyl fluoride (PMSF)). The cells were allowed to swell for 5 min on ice prior to homogenization for 30 sec. The homogenates were centrifuged at 40,000 rpm for 45 min at 4° C. The supernatant (S100) was removed and the pellet (P100) was resuspended in HEDG buffer (20 mM HEPES (pH 7.67), 1 mM EGTA, 0.5 mM dithiothreitol, 100 mM NaCl, 10% glycerol, 1 mM PMSF). Protein concentrations were determined using the Bradford assay (Bradford, M. M., 1976, Anal. Biochem. 72: 248–254).
Binding of peptide and/or peptide-coated PLGA particles to membrane (P100) and cytosolic (S100) fractions was assessed by detection of the dansyl moiety incorporated in the peptide. Costar ninety six well ELISA plates were coated with S100 and P100 fractions (100 μg/ml in 0.05 M NaHCO3) overnight at 4° C. The plates were blocked with 0.5% bovine serum albumin in DPBS for 1 h at room temperature and washed 3 times in 1% BSA-DPBS. Peptide-coated particles or peptides were dispersed in the same buffer and added to the plates at concentrations in the range 0.0325–0.5 mg/well. […] The plates were incubated for 1 h at room temperature. The wells were washed 3 times in 1% BSA-DPBS and 100 μl of goat anti-mouse IgGλ:HRP antibody (Southern Biotechnology 1060-05; 1:10,000) was added per well. The plates were incubated for 1 h at room temperature. After washing 3 times in 1% BSA-DPBS 100 μl of TMB substrate (3,3′,5′,5-tetramethylbenzidine; Microwell Peroxidase Substrate System (Kirkegaard and Perry Laboratories 50-76-00)) was added and the optical density was measured at 650 nm at various time intervals.
Binding of dansylated peptides to P100 fractions was assessed to determine if peptide binding was predictive of peptide-coated particle binding.

[5] = test system: P100 membrane fraction of Caco-2 cells; experiment: Dansylated peptide ELISA: relative binding of PAX2 and HAX42 peptides to P100 fractions (ratio to ZElan021); settings: HAX42 peptides, ratio to ZElan021 = 1.00
How it was run: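 Plates coated overnight at 4 °C with Caco-2 P100 membrane fraction (normally 100 μg/ml, pH 9.6) and blocked with 2% Marvel/PBS were incubated with dansylated peptides. Binding was detected with anti-mouse λ-HRP and TMB, read at 650 nm, and expressed relative to ZElan021.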

fixed Caco-2 cells [6] = experiment: ELISA of GST fusion proteins on fixed Caco-2 cells; format: binding; settings: in words
Procedure: Fixed Caco-2, C2BBe1, and A431 cell plates were prepared by growing cells on tissue culture treated microtiter plates. When cells were confluent, plates were fixed with 10% formaldehyde, washed twice with PBS and stored with 0.5% BSA-PBS at −20° C. […] The standard ELISA procedure was followed at this point.
The standard ELISA procedure was modified as follows. GST proteins were diluted to an appropriate concentration in PBS containing 1% BSA and 0.05% Tween20 (1% BPT), titered and incubated one hour at room temperature. Following five washes an anti-GST monoclonal antibody was added (Sigma, St. Louis Clone GST-2 diluted 1:10,000 in 1% BPT) and incubated one hour. After five more washes goat anti-mouse IgG2b-HRP was added (Southern Biotechnology Associates Inc., Birmingham, Ala., diluted 1:4000 in 1% BPT) and incubated one hour. After five washes plates were developed with TMB peroxidase substrate (Kirkegard and Perry, Gaithersburg, Md.). All data is presented with background binding subtracted.

fixed C2BBe1 cells = experiment: Competition ELISA: dansylated peptides versus GST fusion proteins on fixed C2BBe1 cells; format: binding; settings: 5 μg/ml concentration used in competition assays
Procedure: The standard ELISA procedure was modified as follows. GST fusion proteins and peptides were diluted to an appropriate concentration in PBS containing 1% BSA and 0.05% Tween 20. Peptides were titered, a constant concentration of diluted GST protein was added to titered peptides and the mixture was incubated one hour at room temperature. Following five washes, an anti-GST monoclonal antibody was added (Sigma, St. Louis Clone GST-2 diluted 1:10,000 in 1% BPT) and incubated one hour. After five more washes goat anti-mouse IgG2b-HRP was added (Southern Biotechnology Associates Inc., Birmingham, Ala., diluted 1:4000 in 1% BPT) and incubated one hour. After five washes plates were developed with TMB peroxidase substrate (Kirkegard and Perry, Gaithersburg, Md.). All data is presented with background binding subtracted.
Data is presented as O.D. vs. peptide concentration and as percent inhibition of GST-P31 binding vs. peptide concentration. Uncompeted GST-P31 binding was considered as 100% binding.
FIGS. 10A–10C present a compilation of data generated by competition ELISA of GST-P31, GST-PAX2, GST-SNi10 and GST-HAX42 versus various dansylated peptides on fixed C2BBe1 cells. IC50 values are in μM and include ranges determined from multiple assays. The GST/C2BBe1 column is a summary of GST protein binding to fixed C2BBe1 cells.

BSA = BSA (Bos taurus, UniProt P02769); experiment: Receptor ELISA of phage on BSA (background control protein); format: binding; settings: Table 4; phage panned on hPEPT1
Sequence of BSA (P02769 25-607): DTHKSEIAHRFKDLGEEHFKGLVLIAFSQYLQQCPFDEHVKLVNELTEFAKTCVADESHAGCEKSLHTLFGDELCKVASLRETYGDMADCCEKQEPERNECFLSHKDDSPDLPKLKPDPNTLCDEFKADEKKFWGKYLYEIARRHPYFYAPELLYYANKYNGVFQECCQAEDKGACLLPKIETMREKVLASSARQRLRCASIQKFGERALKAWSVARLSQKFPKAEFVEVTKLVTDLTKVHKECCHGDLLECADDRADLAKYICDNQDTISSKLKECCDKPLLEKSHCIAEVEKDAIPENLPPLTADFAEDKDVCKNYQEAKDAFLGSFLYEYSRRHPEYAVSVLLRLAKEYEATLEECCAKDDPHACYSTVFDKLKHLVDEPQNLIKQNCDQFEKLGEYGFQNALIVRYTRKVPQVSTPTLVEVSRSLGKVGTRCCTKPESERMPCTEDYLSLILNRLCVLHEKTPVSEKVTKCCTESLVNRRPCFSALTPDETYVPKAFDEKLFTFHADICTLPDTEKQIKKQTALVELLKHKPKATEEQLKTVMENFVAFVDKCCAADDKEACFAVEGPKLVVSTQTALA

[7] = test system: rat gastro-intestinal tract (closed loop); experiment: Transport of preselected phage libraries in rat closed loop, detected by oligonucleotide hybridization/autoradiography; settings: hPEPT1 pool; in words
[8] = Animal Study 3: intraduodenal open loop leuprolide acetate particles, plasma leuprolide; format: in vivo, Wistar rats; settings: intraduodenal 600 μg vs 12.5 μg subcutaneous
Procedure: An intraduodenal open loop model study was carried out on Wistar rats (300–350 g). Group 1 was administered leuprolide acetate (12.5 μg) subcutaneously. Group 2 was administered intraduodenally uncoated leuprolide acetate particles (600 μg, 1.5 ml).

## GST-PAX2-106: GST fusion of truncated peptide derived from PAX2, SEQ ID NO: 188 (TNAKHSSHNRRLRTRSRPN; also: GST fusion)
Fixed Caco-2 cells [1]
  Effect of cleavage with thrombin on detection of binding to fixed Caco-2 cells: significantly reduced
[2]
  Value (binding to P100 as ratio of GST-HAX42 binding): 2.71

## H-K(Dansyl)SDHALGTNLRSDNAKEPGDYNCCGNGNSTGRKVFNRRRPSAIPT-NH2 (cysteines drawn unpaired) [ZElan021]
Fixed Caco-2 cells [3]
  Inhibition of GST-HAX42 binding to fixed Caco-2 cells: not inhibited
[4]; initial assay
  Binding of dansylated peptide to P100 fraction: strong binding
[4]; repeat assay
  Binding of dansylated peptide to P100 fraction: significant binding
[5]; 20 μg/ml
  Binding value at 20 μg/ml: 1.00
[5]; first column
  Binding value at 25 μg/ml: 1.00
  Binding value at 50 μg/ml: 1.00
[5]; second column
  Binding value at 25 μg/ml: 1.00
  Binding value at 50 μg/ml: 1.00
[5]; third column
  Binding value at 25 μg/ml: 1.00

## GST-HAX42: GST-fusion protein from HAX42 (SDHALGTNLRSDNAKEPGDYNCCGNGNSTGRKVFNRRRPSAIPT; cysteine pairing not given here; also: GST fusion)
Fixed Caco-2 cells [6]
  Binding to fixed Caco-2 or C2BBe1 cells relative to GST control: weak to moderate binding
Fixed C2BBe1 cells
  Crossreactivity of GST fusion to ZElan018 (PAX2) and ZElan021 (HAX42): exhibited crossreactivity
[2]
  Value (binding to P100 as ratio of GST-HAX42 binding): 1.00

## SARDSGPAEDGSRAVRLNGVENANTRKSSRSNPRGRRHP (not fully specified) [Peptide P31]
BSA
  BSA: 0.075 OD
[7]
  Binding to / presence in the intestine samples: preferential binding
  Presence in the portal circulation: found
  Presence in the systemic circulation: found in the systemic circulation
[8]
  Plasma levels of leuprolide relative to subcutaneous injection: enhanced plasma levels of leuprolide
